Measurements reported in patent US12215123B2, “Cordycepin-based derivatized compound with anti-tumor effect” (NANJING TECH UNIVERSITY, priority 2022, dated 2025).

Tests used:
IDB ovarian cancer cells = assay: Mouse transplanted ovarian cancer model; format: in vivo, C57BL/6j nude mice; details: ovarian cancer transplanted mice, 15 days, 500 ug/time/animal intragastric
Description: (§1) The feeding of the mouse model in the drug evaluation follows that: mice are fed and treated in a laminar flow cabinet, with 5 nude mice in each cage, drinking water and feedstuffs are added once every 3 days, and paddings are replaced once a week; a number of mice kept in each cage is no more than 5, the mice in separate cages are kept in groups as far as possible, and the mice should not be kept in a single cage; the animal management must conform to the relevant national standards on animal feeding management, and the behavioral needs of animals should be concerned at the same time to avoid unnecessary stress; the normal physiological and behavioral needs of animals, such as defecation, urination, constant body temperature maintenance, normal activities, posture adjustment and reproduction are met; good ventilation and dry animals are kept; the animals can access to drinking water and food at will, and supplementation, replacement and cleaning operations are easily carried out; a solid and safe environment is provided to avoid accidents of animals, such as escaping or limb trapping in a gap; the animals are avoided from being damaged by sharp edges or protrusions; and the animals are not disturbed during observation.
A mouse transplanted ovarian cancer model was established and a drug was evaluated. […]

[1] = test system: Hep-1-6 liver cancer cells; assay: Mouse transplanted liver cancer model; format: in vivo, C57BL/6j nude mice; details: Hep-1-6 transplanted mice, intragastric 500 ug/time/animal every other day, 14 days; blank 900 mm^3
Description: as §1
A mouse transplanted liver cancer model was established and a drug was evaluated. […]

Structure (SMILES): CC(C)OC(=O)C(C)NP(=O)(COC[C@@H]1CC(O)[C@H](n2cnc3c(NC(=O)c4ccncc4)ncnc32)O1)Oc1ccccc1 (some centres unmarked) [Compound 24, isopropyl((((4-hydroxy-5-(6-(isonicotinamide)-9H-purin-9-yl)tetrahydrofuran-2-yl)methoxy)methyl)(phenoxy)phosphoryl)alanine ester]
- tumor size reduced by (times) versus control (IDB ovarian cancer cells): about 2 times
- tumor volume [1]: < 100 mm^3
